Measured values reported in patent US6875760B2 (Novo Nordisk A/S, priority 1999, dated 2005).

target: T1, human glucagon receptor (Homo sapiens, UniProt P47871); assay: Glucagon Binding Assay (III); settings: BHK cell membranes, WGA SPA beads, 125I-glucagon; read-out: Glu Bd Assay (III) IC50
T1 construct: expressed in transfected cells; host or cells: BHK (baby hamster kidney) cells
Summary of the method: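 Non-specific binding was set with 500 nM glucagon in this SPA-type binding assay using WGA beads. The receptor source was a membrane preparation, kept on ice or at 4 °C, from BHK cells transfected with the human receptor. Scintillation counts were taken after 4 hours of shaking and 8–48 hours of settling.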

T1 sequence (P47871 26-477): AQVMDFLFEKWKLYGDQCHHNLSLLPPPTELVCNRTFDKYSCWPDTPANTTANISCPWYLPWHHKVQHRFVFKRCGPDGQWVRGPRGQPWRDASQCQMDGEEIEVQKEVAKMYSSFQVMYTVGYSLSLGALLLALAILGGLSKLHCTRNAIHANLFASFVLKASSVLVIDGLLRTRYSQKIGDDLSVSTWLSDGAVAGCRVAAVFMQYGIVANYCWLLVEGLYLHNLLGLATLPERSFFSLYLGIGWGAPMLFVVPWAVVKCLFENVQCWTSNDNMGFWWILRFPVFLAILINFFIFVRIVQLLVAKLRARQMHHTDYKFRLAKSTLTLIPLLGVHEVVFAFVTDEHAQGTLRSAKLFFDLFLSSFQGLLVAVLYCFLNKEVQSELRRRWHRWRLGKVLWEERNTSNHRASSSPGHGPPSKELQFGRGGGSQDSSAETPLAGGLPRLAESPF

IC50	Molecule
226 nM	CC(C)(C)[C@H]1CC[C@H](N(Cc2ccc(C(=O)Nc3nn[nH]n3)s2)C(=O)Nc2ccc(OC(F)(F)F)cc2)CC1 [Example 578, 5-[1-(trans-4-tert-Butylcyclohexyl)-3-(4-trifluoromethoxyphenyl)ureidomethyl]thiophene-2-carboxylic acid (2H-tetrazol-5-yl)amide]
171 nM	O=C(Nc1nn[nH]n1)c1ccc(CN(C(=O)Nc2cccc(SCC3CC3)c2)c2ccc(C3CCCCC3)cc2)cc1 [Example 299, 4-[1-(4-Cyclohexylphenyl)-3-(3-cyclopropylmethylsulfanylphenyl)ureidomethyl]-N-(2H-tetrazol-5-yl)benzamide]
407 nM	O=C(O)CCNC(=O)c1ccc(CN(CC(c2ccccc2)c2ccccc2)C(=O)c2cc3cc(Cl)ccc3o2)cc1 [Example 563, 3-(4-{[(5-Chlorobenzofuran-2-carbonyl)-(2,2-diphenylethyl)amino]methyl}benzoylamino)propionic acid]
6 nM	O=C(Nc1nn[nH]n1)c1ccc(CN(C(=O)Nc2cccc(Br)c2)c2ccc(C3=CCCCC3)cc2)cc1 [Example 349, 4-[3-(3-Bromophenyl)-1-(4-cyclohex-1-enylphenyl)ureidomethyl]-N-(2H-tetrazol-5-yl)benzamide]
1990 nM	O=C(O)CCNC(=O)c1ccc(CN(C(=O)Nc2ccc(OC(F)(F)F)cc2)c2cnc3ccccc3c2)cc1 [Example 436, 3-{4-[1-Quinolin-3-yl-3-(4-trifluoromethoxyphenyl)ureidomethyl]benzoylamino}propionic acid]
17 nM	O=C(O)CCNC(=O)c1ccc(CN(C(=O)Nc2cc(Br)cc(C(F)(F)F)c2)c2ccc(C3CCCCC3)cc2)cc1 [Example 394, 3-{4-[1-(4-Cyclohexylphenyl)-3-(3-bromo-5-trifluoromethylphenyl)ureidomethyl]benzoylamino}propionic acid]
620 nM	CC(C)(C)C1CCC(N(Cc2ccc(C(=O)Nc3nn[nH]n3)cc2)C(=O)Cc2ccc(S(C)(=O)=O)cc2)CC1 (stereo not drawn) [Example 517, 4-({(4-tert-Butylcyclohexyl)-[2-(4-methylsulfonylphenyl)acetyl]amino}methyl)-N-(2H-tetrazol-5-yl)benzamide]
810 nM	O=C(Nc1nn[nH]n1)c1ccc(CN(C(=O)c2ccc(OC(F)(F)F)cc2)c2ccc(C3CCCCC3)cc2)cc1 [Example 485, 4-{[(4-Cyclohexylphenyl)-(4-triflourmethoxybenzoyl)amino]methyl}-N-(2H-tetrazol-5-yl)benzamide]
245 nM	CC(C)OC(=O)c1ccc(NC(=O)N(Cc2ccc(C(=O)NCCC(=O)O)cc2)C2CCC(C(C)(C)C)CC2)cc1 (stereo not drawn) [Example 73, 4-{3-(4-tert-Butylcyclohexyl)-3-[4-(2-carboxyethylcarbamoyl)benzyl]ureido}benzoic acid isopropyl ester]
184 nM	CCCCC(CC)CN(Cc1ccc(C(=O)NCCC(=O)O)cc1)C(=O)Nc1ccc(Oc2ccccc2)cc1 (stereo not drawn) [Example 14, 3-{4-[1-(2-Ethylhexyl)-3-(4-phenoxyphenyl)ureidomethyl]benzoylamino}propionic acid]
1690 nM	CC(C)(C)c1ccc(N(Cc2ccc(C(=O)Nc3nn[nH]n3)cc2)C(=O)Nc2ccc3c(c2)S(=O)(=O)CC3)cc1 [Example 259, 4-[1-(4-tert-Butylphenyl)-3-(1,1-dioxo-2,3-dihydro-1H-benzo[b]thiophen-6-yl)ureidomethyl]-N-(2H-tetrazol-5-yl)benzamide]
1500 nM	CC(C)(C)C1CCC(N(Cc2ccc(C(=O)Nc3nn[nH]n3)cc2)C(=O)c2cc3ccccc3s2)CC1 (stereo not drawn) [Example 473, Benzo[b]thiophene-2-carboxylic acid (4-tert-butylcyclohexyl)-[4-(2H-tetrazol-5-ylcarbamoyl)benzyl]amide]
8 nM	CC(C)N1C(=O)c2ccc(NC(=O)N(Cc3ccc(C(=O)Nc4nn[nH]n4)cc3)c3ccc(C4CCCCC4)cc3)cc2C1=O [Example 627, 4-[1-(4-Cyclohexylphenyl)-3-(N-isopropylphthalimid-4-yl)ureidomethyl]-N-(2H-tetrazol-5-yl)benzamide]
4 nM	O=C(Nc1nn[nH]n1)c1ccc(CN(C(=O)Nc2ccc3c(c2)C(=O)N(CC2CC2)C3=O)c2ccc(C3CCCCC3)cc2)cc1 [Example 639, 4-[1-(4-Cyclohexylphenyl)-3-(N′-[cyclopropylmethyl]phthalimid-4-yl)ureidomethyl]-N-(2H-tetrazol-5-yl)benzamide]
90 nM	CC(C)(C)C1CCC(N(Cc2ccc(C(=O)NCCC(=O)O)cc2)C(=O)Nc2ccc(Oc3ccccc3)cc2)CC1 (stereo not drawn) [Example 57, 3-{4-[1-(4-tert-Butylcyclohexyl)-3-(4-phenoxyphenyl)ureidomethyl]benzoylamino}propionic acid]
192 nM	CC(=O)c1ccc(NC(=O)N(Cc2ccc(C(=O)Nc3nn[nH]n3)cc2)c2ccc(C3CCCCC3)cc2)cc1 [Example 272, 4-[3-(4-Acetylphenyl)-1-(4-cyclohexylphenyl)ureidomethyl]-N-(2H-tetrazol-5-yl)benzamide]
18 nM	COc1cc(NC(=O)N(Cc2ccc(C(=O)Nc3nn[nH]n3)cc2)c2ccc(C3CCCCC3)cc2)cc(C(F)(F)F)c1 [Example 319, 4-[1-(4-Cyclohexylphenyl)-3-(3-methoxy-5-trifluoromethylphenyl)ureidomethyl]-N-(2H-tetrazol-5-yl)benzamide]
552 nM	CC(C)(C)C1CCC(N(Cc2ccc(C(=O)Nc3nn[nH]n3)cc2)C(=O)/C=C/c2cccc3ccccc23)CC1 (stereo not drawn) [Example 544]
168 nM	CC(C)(C)C1CCC(N(Cc2ccc(C(=O)NCCC(=O)O)cc2)C(=O)Nc2ccc(C#N)c(C(F)(F)F)c2)CC1 (stereo not drawn) [Example 70, 3-{4-[1-(4-tert-Butylcyclohexyl)-3-(4-cyano-3-trifluoromethylphenyl)ureidomethyl]benzoylamino}propionic acid]
247 nM	O=C(Nc1nn[nH]n1)c1ccc(CN(C(=O)Nc2ccc(OC(F)(F)F)cc2)c2ccc(N3CCCCC3)cc2)cc1 [Example 318, 4-[1-(4-Piperidin-1-ylphenyl)-3-(4-trifluoromethoxyphenyl)ureidomethyl]-N-(2H-tetrazol-5-yl)benzamide]

Molecule	IC50
(4-tert-Butylcyclohexyl)-3-(N′-[cyclopropylmethyl]phthalimid-4-yl)ureidomethyl]-N-(2H-tetrazol-5-yl)benzamide [Example 638]	11 nM
CC(C)(C)C1CCC(N(Cc2ccc(C(=O)NCCC(=O)O)cc2)C(=O)Oc2cc(Cl)cc(Cl)c2)CC1 (stereo not drawn) [Example 402, 3-(4-{[(4-tert-Butylcyclohexyl)-(3,5-dichlorophenoxycarbonyl)amino]methyl}benzoylamino)propionic acid]	176 nM
O=C(O)CCNC(=O)c1ccc(CN(C(=O)Oc2ccc(Cl)cc2Cl)c2ccc(C3CCCCC3)cc2)cc1 [Example 416, 3-(4-{[(4-Cyclohexylphenyl)-(2,4-dichlorophenoxycarbonyl)amino]methyl}benzoylamino)propionic acid]	634 nM

same assay, conditions: Glu Bd Assay (III) IC50 (nM), BHK cell membranes, WGA SPA beads, 125I-glucagon

Molecule	IC50
CC(C)(C)[C@H]1CC[C@H](N(Cc2ccc(C(=O)NCCC(=O)O)cc2)C(=O)Nc2ccc(C#N)cc2OC(F)(F)F)CC1 [Example 247, 3-{4-[1-(trans-4-tert-Butylcyclohexyl)-3-(4-cyano-2-trifluoromethoxyphenyl)ureidomethyl]benzoylamino}propionic acid]	215 nM
